Two compounds from patent US20250082611A1, “DOSING REGIMEN FOR AN NLRP3 INHIBITOR IN THE TREATMENT OF OSTEOARTHRITIS” (Novartis AG, priority 2021, published 2025) can be followed below.

This assay has as its system IL-1β production in PMA-differentiated THP-1 cells. The experiment in a line: IL-1β production in PMA-differentiated THP-1 cells stimulated with gramicidin (hTHP-1 assay, 2% fetal bovine serum). The assay is classed as cell-based. The note with it: Homo sapiens, hTHP-1 assay containing 2% fetal bovine serum. The method, then: THP-1 cells were purchased from the American Type Culture Collection and sub-cultured according to instructions from the supplier. Cells were cultured in complete RPMI 1640 (containing 10% heat inactivated FBS, penicillin (100 units/ml) and streptomycin (100 μg/ml)), and maintained in log phase prior to experimental setup. Prior to the experiment, compounds were dissolved in dimethyl sulfoxide (DMSO) to generate a 30 mM stock. The compound stock was first pre-diluted in DMSO to 3, 0.34, 0.042 and 0.0083 mM intermediate concentrations and subsequently spotted using Echo550 liquid handler into an empty 384-well assay plate to achieve desired final concentration (e.g. 100, 33, 11, 3.7, 1.2, 0.41, 0.14, 0.046, 0.015, 0.0051, 0.0017 μM). DMSO was backfilled in the plate to achieve a final DMSO assay concentration of 0.37%. The plate was then sealed and stored at room temperature until required.
THP-1 cells were treated with PMA (Phorbol 12-myristate 13-acetate) (20 ng/ml) for 16-18 hours. On the day of the experiment the media was removed and adherent cells were detached with trypsin for 5 minutes. Cells were then harvested, washed with complete RPMI 1640, spun down, and resuspended in RPMI 1640 (containing 2% heat inactivated FBS, penicillin (100 units/ml) and streptomycin (100 μg/ml). The cells were plated in the 384-well assay plate containing the spotted compounds at a density of 50,000 cells/well (final assay volume 50 μl). Cells were incubated with compounds for 1 hour and then stimulated with gramicidin (5 μM) (Enzo) for 2 hours. Plates were then centrifuged at 340 g for 5 min. Cell free supernatant (40 μL) was collected using a 96-channel PlateMaster (Gilson) and the production of IL-1β was evaluated by HTRF (cisbio). The plates were incubated for 18 h at 4° C. and read using the preset HTRF program (donor emission at 620 nm, acceptor emission at 668 nm) of the SpectraMax i3x spectrophotometer (Molecular Devices, software SoftMax 6). A vehicle only control and a dose titration of CRID3 (100-0.0017 μM) were run concurrently with each experiment. […]

SMILES strings stand for the structures.

The compound `CC(C)(O)c1ncc(S(N)(=O)=NC(=O)Nc2c3c(cc4c2CCC4)CCC3)s1` (centres unmarked) [Compound I, N′-(1,2,3,5,6,7-hexahydro-s-indacen-4-ylcarbamoyl)-2-(2-hydroxypropan-2-yl) thiazole-5-sulfonimidamide] showed an IC50 of 40 to 200 nM.

For the compound `CC(C)(O)c1ncc([S@@](N)(=O)=NC(=O)Nc2c3c(cc4c2CCC4)CCC3)s1` [Compound IB, (S)-N′-((1,2,3,5,6,7-hexahydro-s-indacen-4-yl)carbamoyl)-2-(2-hydroxypropan-2-yl) thiazole-5-sulfonimidamide], the IC50 was in the range of 200 to 1000 nM.

As a reminder, the IC50 is the point on the concentration scale where inhibition reaches its midpoint. Read a low IC50 as greater potency.
